The text below walks through data of ChEMBL document CHEMBL5523759, “Discovery of Novel HDAC3 Inhibitors with PD-L1 Downregulating/Degrading and Antitumor Immune Effects” (J Med Chem, 2024).

In general, IC50 refers to the concentration that gives 50% inhibition.

For the test, the system named is Jurkat. As to the kind of experiment: Antiproliferative activity against human Jurkat T cells assessed as reduction in cell viability measured for 48 hrs by CCK-8 assay. In kind it is functional, cell-based.
Turning to `Nc1ccccc1NC(=O)CCCNC(=O)c1ncc(CNc2ccccc2)s1`, the IC50 worked out at 560 nM. Under `Nc1ccccc1NC(=O)CC(=O)Nc1ccc(-c2ncc(CNc3ccccc3)s2)cc1` stands above 1220 nM. With `CCCNNC(=O)CCCCCCNC(=O)c1ncc(CNc2ccccc2)s1`, the IC50 worked out at 1510 nM. Take `CCCNNC(=O)CCNC(=O)c1ncc(CNc2ccccc2)s1`: the IC50 came out at 4770 nM. The figure for `Nc1ccccc1NC(=O)c1ncc(CNc2ccccc2)s1` is 400 nM; for `Nc1ccccc1NC(=O)CNC(=O)c1ncc(CNc2ccccc2)s1` it is above 10000 nM. Consider `Nc1ccccc1NC(=O)CCCCCCC(=O)Nc1ccc(-c2ncc(CNc3ccccc3)s2)cc1`, for which the IC50 is 290 nM. As to `Nc1ccccc1NC(=O)CCCCCNC(=O)c1ncc(CNc2ccccc2)s1`, the IC50 was 1060 nM. For `CCCNNC(=O)CNC(=O)c1ncc(CNc2ccccc2)s1`, the IC50 is above 10000 nM. Consider `Nc1ccccc1NC(=O)CCNC(=O)c1ncc(CNc2ccccc2)s1`, for which the IC50 was 5150 nM. With `CCCNNC(=O)CCCCNC(=O)c1ncc(CNc2ccccc2)s1`, the IC50 turned out to be 1180 nM. Consider `Nc1ccccc1NC(=O)/C=C/c1ccc(CNC(=O)c2ncc(CNc3ccccc3)s2)cc1`, for which the IC50 came to 390 nM. Under `CCCNNC(=O)CCCCCNC(=O)c1ncc(CNc2ccccc2)s1` stands above 10000 nM; under `Nc1ccccc1NC(=O)c1ccc(NC(=O)c2ncc(CNc3ccccc3)s2)cc1`, 2520 nM. In the case of `Nc1ccccc1NC(=O)CCC(=O)Nc1ccc(-c2ncc(CNc3ccccc3)s2)cc1`, the IC50 was above 10000 nM. With `Nc1ccccc1NC(=O)CCCCCCNC(=O)c1ncc(CNc2ccccc2)s1`, the IC50 was determined as 450 nM. `CCCNNC(=O)c1ncc(CNc2ccccc2)s1`: the IC50 is above 10000 nM. As for `CCCNNC(=O)c1ccc(NC(=O)c2ncc(CNc3ccccc3)s2)cc1`, the IC50 was found to be 550 nM. The figure for `CCCNNC(=O)CCCNC(=O)c1ncc(CNc2ccccc2)s1` is 4880 nM; for `Nc1ccccc1NC(=O)CCCCNC(=O)c1ncc(CNc2ccccc2)s1` it is 950 nM; for `Nc1ccccc1NC(=O)CCCCC(=O)Nc1ccc(-c2ncc(CNc3ccccc3)s2)cc1` it is 670 nM. Regarding `Nc1ccccc1NC(=O)CCCC(=O)Nc1ccc(-c2ncc(CNc3ccccc3)s2)cc1`, the IC50 turned out to be 1020 nM.
